Columns and labels:
[1] = system: subjects with fibromyalgia; experiment: QST: visual stimulation task; assay type: in vivo, human
From the text: To measure non-somatic sensitivity, a series of nonpainful, yet aversive, visual stimuli were presented to each subject. This 10-minute task consisted of 2 different visual stimuli presented in an alternating block design. The control stimulus was a solid color background, whereas experimental stimulus was a flashing annulus checkerboard. These 2 stimuli were interleaved into independent 8- to 30-second blocks throughout the duration of the task. Subjects viewed the stimuli on a calibrated liquid crystal display computer screen designed for high resolution image presentation. Stimuli were presented at varying brightness levels and/or color patterns, and each stimulus presentation was rated on scales of sensory intensity and unpleasantness. […] A redacted version of this task was administered during fMRI.
QST data were analyzed at the University of Michigan CPFRC. Dependent variables were the MAST derived outcomes (Pain50, pressure pain threshold, pain tolerance, and pain ratings at 2 kg/cm2), algometry-derived pressure pain thresholds (mean of three trials) at each anatomical site, average cuff intensity ratings (mean of ratings at all stimulus levels during the ascending or random sequences), and average visual task unpleasantness and brightness intensity ratings (mean of ratings at all stimulus levels). Practice data were not analyzed. Overall pain intensity and unpleasantness NRS scores as well as stimulus response curves for each test were assessed during post hoc analyses. Data points displaying measurement artefacts, including device malfunction or user error, were set to missing. Single subject QST variables were analyzed using paired t-tests and/or nonparametric Wilcoxon signed-rank tests in SPSS or R.

[2] = system: resting state network connectivity; experiment: rs-fcMRI group independent component analysis (DMN, SLN, DAN); assay type: in vivo, human
Method: In order to quantify intrinsic brain connectivity, rs-fcMRI data were analyzed with both dual-regression ICA and seed-voxel approaches. These approaches are complementary, as they quantify intrinsic brain connectivity on a network level (dual regression probabilistic ICA) and a more specific region-focused level (seed-voxel).
Resting state functional connectivity MRI data were preprocessed and analyzed using statistical parametric mapping software package Version 12, the CONN functional connectivity toolbox, and the GIFT toolbar, all running on MATLAB Version 9.2 or later. Upon collection of rs-fcMRI data, physiological artifacts were first removed using a custom MATLAB algorithm and slice-time corrected using Functional Magnetic Resonance Imaging of the Brain Software Library software. Preprocessing steps included motion correction, realignment, registration, normalization to standard Montreal Neurological Institute template, and smoothing (full width at half maximum Gaussian kernel of 6 or 8 mm).
Group ICA was performed using the GIFT toolbar and component estimates were validated using Icasso software for 10 iterations. The number of independent components was limited to 25 to minimize splitting into subcomponents. Subject-specific spatial maps and time courses were back reconstructed using spatiotemporal regression and dual regression in GIFT. As for seed-based analyses, individual maps were passed onto group second level analyses in statistical parametric mapping, where differences in resting state network connectivity between placebo and drug images were performed.
Several analyses were conducted with the fMRI resting state and task data. Results were assessed by: 1) a primary analysis, where a finding was deemed significant with a corrected cluster level p<0.05, derived from an uncorrected voxel-wise p<0.001, and 2) an exploratory analysis, where a finding was deemed significant with an uncorrected voxel-wise p<0.005 and having a cluster greater than or equal to 80 contiguous voxels. Results that met significance in the primary analyses had connectivity values extracted and imported into SPSS v25 where paired t-tests were performed to assess for potential outliers contributing to the finding. Remaining data were then correlated with clinical measures using parametric bivariate Pearson correlations. Results were deemed significant at p<0.05.
Group ICA was performed (n=18) for the resting state scan, and the network components for the Default Mode Network, the Salience Network, and the Dorsal Attention Network were computed. […] With the exploratory analyses, resting state connectivity was decreased from the placebo visit to the NYX-2925 200 mg visit (placebo >NYX-2925 200 mg) between the Default Mode Network and the left mid cingulate cortex. […] In exploratory analyses, resting state functional connectivity was decreased from the placebo visit to the NYX-2925 200 mg visit (placebo >NYX-2925 200 mg) between the Salience Network and the right putamen/thalamus. Here, augmented connectivity between Salience Network, a network comprised of pronociceptive regions, and putamen and thalamus, regions also involved in nociception, was decreased following treatment with NYX-2925.

[3] = exploratory, placebo visit to NYX-2925 200 mg visit

Structure (SMILES): CC(C)C(=O)N1CCC[C@]12CN([C@H](C(N)=O)[C@@H](C)O)C2=O [NYX-2925, (2S, 3R)-3-hydroxy-2-((R)-5-isobutyryl-1-oxo-2,5-diazaspiro[3.4]octan-2-yl)butanamide]
- overall visual task unpleasantness ([1]; NYX-2925 200 mg (Week 6)): 42.31±29.20
- rating of unpleasantness evoked by the brightest visual stimulus ([1]; NYX-2925 200 mg (Week 6)): 59.97±35.46 NRS
- rating of unpleasantness evoked by the brightest visual stimulus ([1]; Week 7 follow-up, p=0.037 vs 200 mg): 53.13±36.88 NRS
- overall visual task unpleasantness ([1]; Week 7 follow-up, p=0.040 vs 200 mg): 33.85±28.07
- connectivity Default Mode Network - left mid cingulate cortex [2, 3]: decreased
- connectivity Salience Network - right putamen/thalamus [2, 3]: decreased
- Salience Network connectivity ([2]; primary analysis): No results met significance
- Default Mode Network connectivity ([2]; primary analysis, n=18): No results met significance
- Dorsal Attention Network connectivity ([2]; primary and exploratory analyses): no significant results
